According to patent US20100267763A1, “Method of Decreasing Pro-ADAM10 Secretase and/or Beta Secretase Levels” (priority 2009, published 2010):
Entries after “also recorded” stand apart in the source; their conditions may differ. Read-outs that look alike come from different tables or passages of the source.

What was measured:
Neuro2a cells = assay: Aβ production by Neuro2a cultured cells, ELISA of culture medium; format: cell-based, murine; conditions: 24 hours of treatment, vs control
Experimental: Neuro2a is a murine neuroblastoma cell line that is known to produce amyloid peptides Aβ1-40 and Aβ1-42 in amounts measurable by ELISA assays. These forms of Aβ have been correlated with the pathology in AD brain and Aβ1-42 in particular is postulated to have the ability to block α7 nicotinic receptors and to produce direct neurotoxic effects. Neuro2a cells were treated for 24 hours with ST101 added to the tissue culture medium. Tissue culture medium was collected and analyzed by ELISA for the presence of Aβ.
FIGS. 1A and 1B are bar graphs that depict the effect of the compound ST101 on Aβ production by Neuro2a cells. FIG. 1A is a bar graph that depicts the Aβ concentration in the cell culture medium as a function of ST101 concentration compared to control. FIG. 1B a bar graph that depicts the ratio of Aβ1-42 to Aβ1-40 as a function of ST101 concentration compared to control.

3xTg-AD mice = assay: Morris water maze in 3xTg-AD mice; format: in vivo, mouse; conditions: 2 months
Experimental: 3xTg-AD mice of approximately one year of age were treated for 2 months with ST101. An average dose of 5 mg/kg/day was administered in drinking water (calculated dose, based on mean water consumption). Behavioral effects were tested by assessing performance on the Morris Water Maze. Biochemical effects were examined by measuring brain content of Aβ and APP by ELISA and Western Blot.
Behavioral Effects: Performance of 3xTg-AD Mice in the Morris Water Maze (MWM), adapted from Roozendaal et al., Proc. Natl. Acad. Sci. U.S.A. 100: 1328-1333 (2003).
The MWM tests both spatial memory (i.e. hippocampus dependent) and cued learning (i.e. non-hippocampal) in rodents. The maze is a circular tank filled with opaque water. Mice are placed in the water and must swim to find and escape onto a platform submerged 1.5 cm beneath the surface of the water. The time (in seconds) required to find the platform is recorded. Animals rely on visual cues in the room containing the tank in order to find the platform on successive challenges. Training was conducted daily for seven consecutive days.
Retention of training was assessed twice, 24 and 72 hours after the final training trial. Animals were subjected to a 60-second free swim in the tank with the platform removed. Parameters measured included (1) latency: time required to reach the former platform location and (2) crosses: the number of times the animal swam across the former platform location.

APP = assay: Western blot of APP and APP C-terminal fragments in brain extracts of 3xTg-AD mice; format: in vivo, mouse; conditions: 5 mg/kg/day
Experimental: To attempt to determine at what part in the Aβ processing/release pathway ST101 may be active, a series of Western blot analyses of brain extracts from the same mice were conducted. These Westerns blots examined intact APP as well as products of its post-translational processing and subsequent degradation.
FIG. 4 is a Western blot that depicts APP C-terminal fragments detected by antibody CT20 in the brains of ST101-treated (S) 3xTg-AD mice, relative to untreated (C) 3xTg mice-AD.
FIG. 5 is a Western blot that depicts APP and degradation fragments detected by antibody CT20 in the brains of ST101-treated (S) 3xTg-AD mice, relative to untreated (C) 3xTg-AD mice. “CT20” stands for full length APP species, and “Actin” stands for anti-beta-actin antibody as a protein loading control.
FIGS. 10A and 10B are Western blots that depict APP carboxy-terminal fragments detected by antibody CT20 in the brains of ST101-treated (T in FIG. 10A, S in FIG. 10B) 3xTg-AD mice, relative to untreated (C) 3xTg-AD mice. FIG. 10B is from a separate experiment that used the same brain extract used in the experiment for FIG. 10A. Animals were approximately 14.5 months old at sacrifice after 2.5 months of treatment with ST101 at 5 mg/kg/day in drinking water. * denotes a control animal with low levels of CTFs.
FIGS. 10C and 10D are Western blots that depict APP carboxy-terminal fragments detected by an APP C-terminal antibody (Eptitomics #: 15654-1) in the brains of ST101-treated (S) 3xTg-AD mice, relative to untreated (C) 3xTg-AD mice. FIG. 10D is a lighter exposure of the Western blot in FIG. 10C. Animals were approximately 14.5 months old at sacrifice after 2.5 months of treatment with ST101 at 5 mg/kg/day in drinking water.

Aβ1-40 = assay: Aβ in brain tissue from cynomolgus monkeys; format: in vivo; conditions: juvenile cynomolgus monkeys, 10 mg/kg/day by naso-gastric tube, 6 months
Experimental: (§1) Brain samples from cynomolgus monkeys were obtained at the conclusion of a six-month chronic toxicity study. The cynomolgus monkeys used in this study were juveniles of less than 4 years of age. ST101 was administered daily for 6 months by naso-gastric tube at 10 mg/kg/day (n=8 per group). Data was generated from 8 treated and 8 control animals. Levels of Aβ1-40 are shown in FIG. 9, which is a bar graph that depicts the effect of ST 101 on Aβ in brain tissue from cynomolgus monkeys. FIG. 9 depicts the amount of levels of Aβ1-40 in monkeys treated with ST 101, relative to control monkeys.

BACE1 = assay: Western blot of BACE in brain extracts of 3xTg-AD mice; format: in vivo, mouse; conditions: 12-month-old 3xTg-AD mice, 5 mg/kg/day, 2 months
Experimental: (§2) APP C-terminal fragments C99 and C83 are created by beta-secretase and alpha-secretase cleavage respectively. The reduction of both C99 and C83 induced by ST101 could therefore be due to reduction or inhibition of secretases. This hypothesis was tested using Western blots of brain extracts from 3xTg-AD mice from the initial experiment in 12-month-old animals treated with ST101 for 2 months. The only beta-secretase is BACE1 and the constitutive alpha-secretase is ADAM10.
(§3) Western blots were probed with antibodies against BACE1 and ADAM10. FIG. 11A is a series of Western blots depicting levels of proADAM10, ADAM10, proBACE, BACE, Presenilin1 and APP-CFTs in brain extracts from ST101 treated 3xTG-AD mice (S) versus control mice (C). C: control brain extract. S: ST101-treated brain extract. Animals were approximately 12 months old at sacrifice after 2 months of treatment with ST101 at 5 mg/kg/day.
(§4) FIG. 11B depicts quantification of the Western blot bands from FIG. 11A by densitometry.

ADAM10 = assay: Western blot of ADAM10 in brain extracts of 3xTg-AD mice; format: in vivo, mouse; conditions: 12-month-old 3xTg-AD mice, 5 mg/kg/day, 2 months
Experimental: as §2, §3, §4

Presenilin 1 = assay: Western blot of Presenilin 1 in brain extracts of 3xTg-AD mice; format: in vivo, mouse; conditions: 12-month-old 3xTg-AD mice, 5 mg/kg/day, 2 months
Experimental: as §3, §4

tau [1] = assay: Tau immunohistochemistry with H7 anti-tau antibody in 3xTg-AD mice; format: in vivo, mouse
From the text: The 3xTg-AD mouse model incorporates both pathological hallmarks of Alzheimer's disease: Aβ amyloid plaques and neurofibrillary tangles. Neurofibrillary tangles consist of accumulates of abnormally phosphorylated tau protein. In the 3xTg-AD mice pathological somato-dendritic accumulation of tau can be seen in immunohistochemistry as part of the disease model phenotype.
ST101 effects on tau distribution and accumulation were explored in immunohistochemistry with H7 anti-tau antibody.

tau [2] = assay: Western blot of tau and phosphorylated tau in brain extracts of 3xTg-AD mice; format: in vivo, mouse; conditions: overexposed blot, 12-month-old 3xTg-AD mice, 5 mg/kg/day, 2 months
From the text: The status of tau phosphorylation, accumulation and degradation can be assessed in Western blots. Two anti-tau antibodies, directed against non-phosphorylated and phosphorylated tau, were used to probe brain extracts from the initial experiment. FIG. 12 is a series of Western blots depicting levels of full-length tau, tau accumulates, tau degradation products and phosphorylated tau levels in brain extracts from ST101 treated 3xTG-AD mice (S) versus control mice (C). Beta actin levels (Ac) were used as a loading control. P-tau, two panels per antibody: top—normal exposure; bottom—overexposure to visualize minor protein bands. Ac: beta actin antibody as protein loading control. Animals were approximately 12 months old at sacrifice after 2 months of treatment with ST101 at 5 mg/kg/day.

sAPP-beta = assay: Western blot of sAPP-beta in brain extracts of 3xTg-AD mice; format: in vivo, mouse; conditions: 14.5-month-old 3xTg-AD mice, 2 months of treatment, 5 mg/kg/day in drinking water
Experimental: FIG. 10B describes a reduction of fragment C99. C99 is created by BACE cleavage which leads to release of soluble APP, specifically sAPP-beta. […] The Western blot was obtained using an sAPP-beta specific antibody in brain extracts from ST101 treated 3xTG-AD mice (S) versus control mice (C). Animals were approximately 14.5 months old at sacrifice after 2 months of treatment with ST101 at 5 mg/kg/day in drinking water.

ADAM17 (TACE) = assay: Western blot of TACE in brain extracts of 3xTg-AD mice; format: in vivo, mouse; conditions: 14.5-month-old 3xTg-AD mice, 2 months of treatment, 5 mg/kg/day in drinking water
Experimental: In addition to ADAM10, ADAM17 (TACE, which is Tumor Necrosis Factor converting enzyme) is known to act as an alpha-secretase of APP. Thus, it was tested in a Western blot whether ST101 reduces levels of ADAM17 (TACE).
The Western blot was obtained using a TACE specific antibody in brain extracts from ST101 treated 3xTG-AD mice (S) versus control mice (C). Animals were approximately 14.5 months old at sacrifice after 2 months of treatment with ST101 at 5 mg/kg/day in drinking water.

[3] = in vivo
From the text: (§5) On the surface, reduction of alpha-secretase cleavage could be considered an undesirable effect as alpha-secretase cleaves multiple other substrates. Thus, one could hypothesize that reduction of alpha-secretase might cause toxicity. However, ST101 has been proven safe in rodent and monkey toxicity studies of up to 6 months at doses up to approximately 100-fold higher than the ones used in the 3xTg-AD mice. […] This may be due to an incomplete effect of ST101 on alpha-secretases or due to activity of other alpha-secretases compensating for a major effect of ST101 on ADAM10.

Monkey toxicity studies = format: in vivo; conditions: up to 6 months, doses up to approximately 100-fold higher than in 3xTg-AD mice
Experimental: as §1, §5

[4] = cited from earlier work
[5] = cited from earlier work; remark: listed apart in the source
SAMP8 mouse = conditions: cited from earlier work
[6] = 24 and 72 hours after final training, 5 mg/kg/day
[7] = 14.5-month-old 3xTg-AD mice, 2.5 months
[8] = antibody CT20, 12-month-old 3xTg-AD mice, 2 months

SMILES: O=C1N=C2C=CC=CN2C12Cc1ccccc1C2 [ST101, spiro(imidazo(1,2-a)pyridin-2(3H)-one-3,2′-indan)]
- Aβ1-40 in cell culture medium (Neuro2a cells): without major effects
- Aβ1-42 in cell culture medium (Neuro2a cells): significantly reduced
- latency on successive days of the training (3xTg-AD mice; 3xTg-AD mice approx. one year old, 5 mg/kg/day in drinking water, vs control): greater reductions in latency
- learning and memory performance (3xTg-AD mice; 3xTg-AD mouse strain, 5 mg/kg/day): improves learning and memory performance
- crosses during retention testing (3xTg-AD mice; [6]): increases in crosses
- latency during retention testing (3xTg-AD mice; [6]): reductions in latency
- 17 kDa fragment (APP; [7]): lack of detection
- C99 fragment (APP; [7]): much more pronounced; also recorded: reduction
- C83 fragment (APP; 14.5-month-old 3xTg-AD mice, 2.5 months, compared with 12-month-old mice): not reduced to the same degree
- C83 C-terminal APP fragment (APP; [8]): substantial decrease
- C99 C-terminal APP fragment (APP; [8]): substantial decrease
- major APP degradation intermediate (~50 kDa) (APP; [8]): disappearance or significant reduction
- molecular weight of full-length APP species (APP; [8]): slightly lowered molecular weight of some full-length species
- novel C-terminal APP fragment of about 17 kDa (APP; [8]): appearance
- APP CTFs (APP; antibody CT20, 14.5-month-old 3xTg-AD mice, 2.5 months): significant effect of reduction
- Aβ1-40 in brain (Aβ1-40): reduction of Aβ1-40 in animals treated with ST101 that did not reach statistical significance
- BACE protein level (BACE1): profound reduction
- Pro-BACE protein level (BACE1): not significantly affected
- ADAM-10 protein level (ADAM10): not significantly affected
- pro-ADAM10 protein level (ADAM10): profound reduction
- Presenilin 1 level (Presenilin 1): did not show significant changes
- neuronal loss, Hematoxylin/Eosin stained control sections (tau [1]): no neuronal loss
- pathological somato-dendritic tau staining (tau [1]; hippocampus, H7 anti-tau antibody): clear reduction
- accumulated tau and degradation products (tau [2]; H7 antibody): disappearance of accumulated tau and degradation products
- phosphorylated tau degradation product (tau [2]; R-p-tau antibody): appearance of a new phosphorylated tau degradation product
- sAPP-beta level (sAPP-beta): concomitant reduction
- TACE level (ADAM17 (TACE)): reduction of TACE levels in the majority of ST101 treated animals
- safety in toxicity studies [3]: proven safe
- safety in toxicity studies (Monkey toxicity studies): proven safe
- memory deficits induced by chemical amnesic agents ([4]; methamphetamine, MK-801, scopolamine): attenuates
- age-impaired memory ([4]; rodent models): significantly improves
- extracellular ACh concentrations ([5]; cerebral cortex): increases
- extracellular concentrations of both ACh and dopamine ([5]; hippocampus): increases
- nicotine-stimulated release of acetylcholine (ACh) ([5]; in vivo): potentiates
- accumulation of Aβ-like deposits in brain tissue (SAMP8 mouse): decreased accumulation
- learning and memory functions (SAMP8 mouse): improvement
